Experimental findings from US12383502B2, “Cold-water-dispersible chemical delivery system” (PHARMAKO BIOTECHNOLOGIES PTY LIMITED, priority 2017, dated 2025) are described below.

The nature of data set [1]: PEA pharmacokinetics, single 300 mg dose. It is filed as in vivo, human. The note with it: for Cmax: po, 300 mg. How it is done: A single equivalent dose, randomised, double blinded study was used to evaluate the pharmacokinetics of 2 different PEA formulations administered in single 300 mg doses (standard PEA and Lipisperse PEA from Batch#MT20170615_01 described in Example 7). All trial participants, investigators conducting the trial and the biochemist analysing the samples were blinded to who was on each product.
Subjects were healthy adult male (n=10) and female (n=8; non-pregnant and non-lactating) volunteers between the ages of 18-30 years. All participants were advised to fast from 10:[…] the night prior to the study commencing until the collection of the first blood sample. Breakfast and lunch were provided to the participants at the centre. This is a standard feeding study with nutritionally balanced meals and snacks provided during the 0-6 hour sample collection. Subjects remained on site for the full 6 hours of sample collection. Only participants who provided at least 9 of the 11 samples collected between 0-24 hours had their data analysed.
For PEA pharmacokinetic analysis, blood samples (3mL collected into ethylenediaminetetraacetic acid (EDTA) containing tubes) were drawn prior to supplementation (hour 0) and at 30, 45, 60, 90, 120, 180, 240, 300, 360 minutes and 24 hours post supplementation. Once obtained, the blood collection tube was briefly mixed by inversion, placed on ice and centrifuged within 10 minutes of collection (600×g, 4° C. for 10 minutes) to separate the plasma. Once spun, EDTA plasma was carefully removed and approximately 3×500 μl aliquots made. Aliquots were temporarily stored at −20° C. (<48 hours) before being transported and stored at −80° C.
Plasma samples were removed from storage at −80° C. and allowed to thaw to room temperature. Once thawed, 100 μL of sample was added to a microfuge tube along with 20 μL of an internal standard solution (50 ng/mL of D8-arachidonic acid (D8-AA) in ethanol). Proteins were precipitated by adding 100 μL of acetone. The tubes were capped and vortex mixed for 15 seconds then put on ice for 10 minutes. The resulting solution was spun at 12,000×g for 10 minutes before the supernatant was removed into a new tube. To the supernatant, 800 μL of a methanol/chloroform solution (2:1) was added along with 240 μL of 3M HCl to achieve phase separation. This solution was vortex mixed for 10 seconds followed by gentle mixing on rotator. After 10 minutes of gentle rotation, the tubes were centrifuged at 12,000×g for 10 minutes with the resulting chloroform layer (bottom layer) transferred to a glass culture tube and dried under a stream of nitrogen gas.
Once dry, the samples were reconstituted in 100 μL of ethanol, mixed and the contents transferred to salinized GC-MS glass inserts and dried under nitrogen. Once dry, the samples were derivatized via the addition of 40 μL of pentafluorobenzylbromide (PFBBr, 10% in acetonitrile −4 μL of PFBBr and 36 μL of ACN) and 20 μL di-isopropylethylamine (DIPEA, 10% in acetonitrile−2 μL DIPEA and 18 μL of ACN) and vortex mixed for 5 seconds. Samples were then incubated at room temperature for 30 min before being dried under nitrogen and the insert placed into GC-MS vials. To each vial, 10 μL of anhydrous pyridine and 20 μL of bis-(trimethylsilyl)trifluoroacetamide and trimethylchlorosilane (BSTFA+TMCS, 99:1) was added, the vial capped and vortex mixed for 5 seconds. The samples were incubated for 20 min at 45° C. The samples were allowed to cool before 70 μL of anhydrous hexane was added and the samples place on the auto sampler rack for analysis.
The standard PEA was purchased from Sigma Aldrich (P0359-10MG) and stored at −20° C. as per manufacturer's instructions. The PEA standard was made up to 1 mM solution with ethanol. Working standard solutions were prepared by diluting the 1 mM solution (or 1 μM/mL) 1:10 with ethanol for a 100 nM/mL solution. This solution was further diluted 1:10 with hexane for a concentration of 10 nM/mL. […]

A short description of data set [2]: Dispersion of composition in water (visual). It counts as physicochemical. The note with it: for liquid dispersibility / wettability: solid placed on liquid (FIG. 2).
Experimental: That the solid substance has non-wettable or poorly-wettable surfaces may be evidenced by the inability of the substance to effectively disperse in water at room temperature (i.e. when added to water, the substance substantially floats on top of the water or is poorly dispersed in the water, see FIG. 2). A sample was added to water to assay the dispersion of the composition. […] A sample of the composition was added to water and mixed and allowed to stand. […] A sample of the composition was added to water and mixed and allowed to stand.

Read-outs that look alike come from different tables or passages of the source.

In the case of `CCCCCCCCCCCCCCCC(=O)NCCO` [Standard PEA, Palmitoylethanolamide], the Cmax in data set [1] (both sexes, human, plasma, plasma, single oral 300 mg, n=9 per group, read-out: Cmax PEA) stood at 3010 ± 1240 ng/mL; in data set [1] (both sexes, human, plasma, plasma, single oral 300 mg, n=9 per group, read-out: Delta Cmax (peak change in PEA concentration from baseline)), 410 ng/mL. Moreover, the concentration at 24 h in data set [1] (both sexes, human, plasma, single oral 300 mg, data not shown, read-out: plasma PEA concentration at the 24 hours collection) came to 2690 ± 1060 ng/mL. The concentration at 0 h in data set [1] (both sexes, human, plasma, prior to supplementation (hour 0), n=9 per group, read-out: Baseline PEA concentration) is 2590 ± 770 ng/mL. The molecule further registered a Peak timing in data set [1] (plasma PEA, single oral 300 mg) of 45 min. In addition, the adverse events entry in data set [1] (single 300 mg dose, n=9 per group) is “No adverse events”.

On to `COc1cc(/C=C/C(=O)CC(=O)/C=C/c2ccc(O)c(OC)c2)ccc1O` [curcumin], for which the “liquid dispersibility / wettability” value in data set [2] was “sitting on top of a liquid, without dispersion”.

Take `Oc1ccc(C=Cc2cc(O)cc(O)c2)cc1` [untreated resveratrol, resveratrol]: in data set [2] (added to water, mixed and allowed to stand (FIG. 10, FIG. 16)), the “dispersion in water after mixing and standing” value is on record as “does not disperse effectively”.

`CCCCCCCCCCCCCCCC(=O)NCCO` [PEA, Palmitoylethanolamide]: in data set [2], the “liquid dispersibility / wettability” value is given as “sitting on top of a liquid, without dispersion”.
